Each structure is given as a SMILES string. Converted amounts (≈) assume the structure as drawn.

For 21 compounds, inhibition in vivo and MIC results are on record in US5190961A, “Thiourea derivatives and antimicrobial agent and antulcer agent containing the same” (Terumo Kabushiki Kaisha, priority 1990, dated 1993).

In assay [1] the test system is peptic ulcer induced by water immersion restraint stress. Nature of the assay: Inhibitory action against the peptic ulcer induced by water immersion restraint stress. It counts as in vivo. Particulars: Rattus norvegicus; SD male rats, 32 mg/kg oral, water immersion restraint stress 23° C., 7 hours; read-out: Inhibitory action against stress peptic ulcer, Percent inhibition of p.u. formation. The method, then:
(1) Inhibitory action against the peptic ulcer induced by water immersion restraint stress
SD male rats (weighing 200-300 g) were fasted for 24 hours before oral administration of a thiourea derivative of the invention at a dose of 32 mg/kg bodyweight. One hour later, the animal was put in a stress cage and loaded with water immersion restraint stress in a water bath at 23° C. Seven hours after loading with the stress, the rate was sacrificed with ether, and the stomach was excised and treated with formalin. Area (mm^2 ) of the lesions developed in the glandular stomach area was then measured. Results were expressed in sum of the lesions per animal which was referred to as peptic ulcer index.
(§1) It was confirmed that the thiourea derivatives of the invention not shown in the table also have a similar antiulcer activity.
Percent inhibition of the peptic ulcer formation (%) as shown in the table was calculated according to the following equation: [formula]

In another assay the test system is ethanol peptic ulcer. The assay can be described thus: Inhibitory action against ethanol peptic ulcer. It counts as in vivo. Conditions: Rattus norvegicus; SD male rats, 32 mg/kg oral, 1 hour before ethanol 0.5 ml/100 g; read-out: Inhibitory action against ethanol peptic ulcer, Percent inhibition of p.u. formation. As to the method: (2) Inhibitory action against ethanol peptic ulcer
SD male rats (weighing 200-300 g) were fasted for 24 hours before oral administration of a thiourea derivative of the invention at a dose of 32 mg/kg bodyweight. One hour later, ethanol was orally given in a volume of 0.5 ml/100 g bodyweight. One hour after treating with ethanol, the rat was sacrificed with ether, and the stomach was excised and treated with formalin. Area (mm^2) of the lesions developed in the glandular stomach area was then measured. Results were expressed in sum of the lesions per animal which was referred to as peptic ulcer index.
as §1
Percent inhibition of the peptic ulcer formation (%) as shown in the table was calculated according to the same equation as mentioned above.

The subject of another assay is Helicobacter pylori. The assay can be described thus: Antimicrobial activity against Helicobacter pylori (MIC). It counts as cell-based, Helicobacter pylori strain NCTC 11916. Conditions: NCTC11916, strain NCTC 11916, twofold dilution, 37° C., 3-5 days, O2 about 5%. As to the method: (3) Antimicrobial activity against Helicobacter pylori
Antimicrobial activity of the thiourea derivatives according to the invention against Helicobacter pylori (or Campylobacter pylori) was evaluated by employing strain NCTC 11916 as a Helicobacter test organism and determining MIC (minimum inhibitory concentration) for the strain with the thiourea derivative.
The Helicobacter pylori was pre-incubated in a plate medium for 3-5 days. The medium was prepared by dissolving 38 g of a Mueller-Hinton medium (manufactured by Difco) in an appropriate amount of distilled water, sterilizing the solution in an autoclave, adding to the solution 50 ml of a horse hemolysis solution (manufactured by Nippon Seibutu Zairyou Center: Horse defibrinized blood, hemolyzed by a lyophilization treatment) and 2 ml of Skirrow, a Campylobacter selective supplement (manufactured by OXOID) containing vancomycin (5 mg), trimethoprim (2.5 mg) and polymyxin B (1250 IU) per vial (2 ml), and further an appropriate amount of distilled water to a volume of 1L in total and expanding and solidifying the solution on a dish. These antibiotics were contained for inhibition of the growth of microorganism other than Helicobacter pylori. The Helicobacter pylori pre-incubated under slightly aerobic conditions (an O2 concentration of about 5%) at 37° C. for 3-5 days was suspended in a physiological saline solution in a concentration of approximately 10^8 organisms/ml. Approximately 10-20 μl of the suspension was inoculated on a medium for MIC measurement in cross streaks. […] The DMSO solution was formed by the twofold dilution method. As in the pre-incubation, the Helicobacter pylori was cultured under slightly aerobic conditions at 37° C. for 3-5 days. After completion of the culture, growth of the microoranisms on the streaks was visually determined. The minimum concentration of the thiourea derivative in which no growth was observed was taken as MIC.
It was confirmed that the thiourea derivatives of the invention not shown in the table also have a similar antimicrobial activity.

With `CNC(=S)NCCCC(=O)NCCCOc1cccc(CN2CCCCC2)c1` [Example 1, 1-[3-[N-[3-[3-(piperidinomethyl)phenoxy]propyl]carbamoyl]propyl]-3-methylthiourea], the inhibition in vivo at 32 mg/kg came to 92.1% in assay [1] and 51.4% with ethanol peptic ulcer. This compound also had an MIC against Helicobacter pylori of 6.25 µg/mL (≈ 15.4 µM).

Consider `CCCCNC(=S)NCCCC(=O)NCCCOc1cccc(CN2CCCCC2)c1` [Example 2], for which the values for the inhibition in vivo at 32 mg/kg (in assay [1]; in the assay with ethanol peptic ulcer) were 67.1% and 75.7%, respectively. Besides, in the assay on Helicobacter pylori, the lowest concentration to inhibit growth (MIC) was 6.25 µg/mL (≈ 13.9 µM).

On to `O=C(CCCNC(=S)Nc1ccccc1)NCCCOc1cccc(CN2CCCCC2)c1` [Example 3, 1-[3-[N-(3-[3-(piperidinomethyl)phenoxy]propyl]carbamoyl]propyl]-3-phenylthiourea], for which the values for the inhibition in vivo at 32 mg/kg (in assay [1]; in the assay with ethanol peptic ulcer) were 80.5% and 88.7%, respectively. Also, the MIC with Helicobacter pylori was found to be 12.5 µg/mL (≈ 26.7 µM).

Consider `O=C(CCCNC(=S)Nc1ccc(Cl)cc1)NCCCOc1cccc(CN2CCCCC2)c1` [Example 4, 1-[3-[N-[3-[3-(piperidinomethyl)phenoxy]propyl]carbamoyl]propyl]-3-(p-chlorophenyl)thiourea], for which the figures for the inhibition in vivo at 32 mg/kg (in assay [1]; in the assay with ethanol peptic ulcer) were 74.6% and 78.2%, respectively. This compound registered an MIC against Helicobacter pylori of 6.25 µg/mL (≈ 12.4 µM).

Take `O=C(CCCNC(=S)NC1CCCCC1)NCCCOc1cccc(CN2CCCCC2)c1` [Example 5, 1-[3-[N-[3-[3-(piperidinomethyl)phenoxy]propyl]carbamoyl]propyl]-3-cyclohexylthiourea]: the inhibition in vivo at 32 mg/kg in assay [1] worked out at 70.5%; with ethanol peptic ulcer, 82.3%. Further, in the assay with Helicobacter pylori, the MIC amounted to 6.25 µg/mL (≈ 13.2 µM).

Turning to `O=C(CCCNC(=S)NCCc1ccccc1)NCCCOc1cccc(CN2CCCCC2)c1` [Example 6], the inhibition in vivo at 32 mg/kg in assay [1] came to 76.9%; in the assay on ethanol peptic ulcer, 84.4%. The compound further had an MIC in the assay on Helicobacter pylori of 6.25 µg/mL (≈ 12.6 µM).

For the compound `O=C(CCCNC(=S)Nc1cccc2ccccc12)NCCCOc1cccc(CN2CCCCC2)c1` [Example 7, 1-[3-[N-[3-[3-(piperidinomethyl)phenoxy]-propyl]carbamoyl]propyl]-3-(1-naphthyl)thiourea], the inhibition in vivo at 32 mg/kg in assay [1] came out at 88.3%; with ethanol peptic ulcer, 92%. The MIC against Helicobacter pylori was 6.25 µg/mL (≈ 12 µM).

As for `O=C(CCCNC(=S)Nc1cccnc1)NCCCOc1cccc(CN2CCCCC2)c1` [Example 8], the inhibition in vivo at 32 mg/kg came out at 82.2% in assay [1] and 65% in the assay with ethanol peptic ulcer. The MIC against Helicobacter pylori came out at 12.5 µg/mL (≈ 26.6 µM).

As to `O=C(CCCNC(=S)Nc1ccccc1)NCCCOc1cccc(CN2CCCC2)c1` [Example 9, 1-[3-[N-[3-[3-(pyrrolidinomethyl)phenoxy]propyl]carbamoyl]propyl]-3-phenylthiourea], the inhibition in vivo at 32 mg/kg in assay [1] was found to be 58.6%; in the assay with ethanol peptic ulcer it was 77.9%. The MIC against Helicobacter pylori is 6.25 µg/mL (≈ 13.7 µM).

`Cc1ccccc1NC(=S)NCCCC(=O)NCCCOc1cccc(CN2CCCCC2)c1` [Example 10, 1-[3-[N-[3-[3-(piperidinomethyl)phenoxyl]propyl]carbamoyl]propyl]-3-(O-methylphenyl)thiourea]: the values for the inhibition in vivo at 32 mg/kg (in assay [1]; in the assay on ethanol peptic ulcer) were 82.2% and 94.2%, respectively. The MIC against Helicobacter pylori was 6.25 µg/mL (≈ 12.9 µM).

`Cc1cc(C)cc(NC(=S)NCCCC(=O)NCCCOc2cccc(CN3CCCCC3)c2)c1` [Example 11, 1-[3-[N-[3-[3-(piperidinomethyl)phenoxy]propyl]carbamoyl]propyl]-3-(3,5-dimethylphenyl)thiourea]: the results for the inhibition in vivo at 32 mg/kg (in assay [1]; with ethanol peptic ulcer) were 85.5% and 92.8%, respectively. Moreover, in the assay on Helicobacter pylori, the MIC is 6.25 µg/mL (≈ 12.6 µM).

On to `Cc1cc(C)c(NC(=S)NCCCC(=O)NCCCOc2cccc(CN3CCCCC3)c2)c(C)c1` [Example 12, 1-[3-[N-[3-[3-(piperidinomethyl)phenoxy]propyl]carbamoyl]propyl]-3-(2,4,6-trimethylphenyl)thiourea], for which the inhibition in vivo at 32 mg/kg in assay [1] was determined as 77.1%; in the assay on ethanol peptic ulcer it was 80.2%. This compound also showed an MIC with Helicobacter pylori of 6.25 µg/mL (≈ 12.2 µM).

On to `CC(C)c1ccc(NC(=S)NCCCC(=O)NCCCOc2cccc(CN3CCCCC3)c2)cc1` [Example 13, 1-[3-[N-[3-[3-(piperidinomethyl)phenoxy]propyl]carbamoyl]propyl]-3-(p-isopropylphenyl)thiourea], for which the values for the inhibition in vivo at 32 mg/kg (in assay [1]; with ethanol peptic ulcer) were 77.3% and 90.2%, respectively. In the assay on Helicobacter pylori, this compound had an MIC of 6.25 µg/mL (≈ 12.2 µM).

Regarding `COc1ccccc1NC(=S)NCCCC(=O)NCCCOc1cccc(CN2CCCCC2)c1` [Example 14, 1-[3-[N-[3-[3-(piperidinomethyl)phenoxy]propyl]-carbamoyl]propyl]-3-(O-methoxyphenyl)thiourea], the inhibition in vivo at 32 mg/kg stood at 91.2% in assay [1] and 94.3% with ethanol peptic ulcer. For the same compound, in the assay on Helicobacter pylori, the lowest concentration to inhibit growth (MIC) was 6.25 µg/mL (≈ 12.5 µM).

`COc1cccc(NC(=S)NCCCC(=O)NCCCOc2cccc(CN3CCCCC3)c2)c1` [Example 15, 1-[3-[N-[3-[3-(piperidinomethyl)phenoxy]propyl]carbamoyl]propyl]-3-(3-methoxyphenyl)thiourea]: the inhibition in vivo at 32 mg/kg stood at 78.3% in assay [1] and 92.1% in the assay on ethanol peptic ulcer. Further, the MIC in the assay with Helicobacter pylori was found to be 6.25 µg/mL (≈ 12.5 µM).

With `CCCCOc1ccccc1NC(=S)NCCCC(=O)NCCCOc1cccc(CN2CCCCC2)c1` [Example 16, 1-[3-[N-[3-[3-(piperidinomethyl)phenoxy]propyl]carbamoyl]propyl]-3-(O-n-buthoxyphenyl)thiourea], the inhibition in vivo at 32 mg/kg in assay [1] amounted to 71.7%; with ethanol peptic ulcer, 93.3%. For the same compound, in the assay on Helicobacter pylori, the MIC worked out at 6.25 µg/mL (≈ 11.6 µM).

Regarding `O=C(CCCNC(=S)Nc1ccccc1Oc1ccccc1)NCCCOc1cccc(CN2CCCCC2)c1` [Example 17, 1-[3-[N-[3-[3-(piperidinomethyl)phenoxy]propyl]carbamoyl]propyl]-3-(O-phenoxyphenyl)thiourea], the inhibition in vivo at 32 mg/kg in assay [1] was 62.2%; with ethanol peptic ulcer, 73.3%. In addition, in the assay with Helicobacter pylori, the MIC was found to be 12.5 µg/mL (≈ 22.3 µM).

For `COc1cc(NC(=S)NCCCC(=O)NCCCOc2cccc(CN3CCCCC3)c2)cc(OC)c1OC` [Example 18, 1-[3-[N-[3-[3-(piperidinomethyl)phenoxy]propyl]carbamoyl]propyl]-3-(3,4,5-trimethoxyphenyl)thiourea], the inhibition in vivo at 32 mg/kg in assay [1] was 60.6%; in the assay on ethanol peptic ulcer it was 83.8%. In addition, the MIC with Helicobacter pylori was found to be 6.25 µg/mL (≈ 11.2 µM).

Turning to `COc1cccc(C)c1NC(=S)NCCCC(=O)NCCCOc1cccc(CN2CCCCC2)c1` [Example 19, 1-[3-[N-[3-[3-(piperidinomethyl)phenoxy]propyl]carbamoyl]propyl]-3-(2-methoxy-6-methylphenyl)thiourea], the inhibition in vivo at 32 mg/kg in assay [1] turned out to be 90.1%; in the assay on ethanol peptic ulcer it was 94.6%. The compound also gave an MIC in the assay with Helicobacter pylori of 6.25 µg/mL (≈ 12.2 µM).

As for `N#Cc1cccc(NC(=S)NCCCC(=O)NCCCOc2cccc(CN3CCCCC3)c2)c1` [Example 20, 1-[3-[N-[3-[3-(piperidinomethyl)phenoxy]propyl]carbamoyl]propyl]-3-(3-cyanophenyl)thiourea], the inhibition in vivo at 32 mg/kg came to 70.2% in assay [1] and 83.5% with ethanol peptic ulcer. The compound further showed an MIC against Helicobacter pylori of 12.5 µg/mL (≈ 25.3 µM).

For the compound `CSc1ccccc1NC(=S)NCCCC(=O)NCCCOc1cccc(CN2CCCCC2)c1` [Example 21, 1-[3-[N-[3-[3-(piperidinomethyl)phenoxy]propyl]carbamoyl]propyl]-3-(2-methylthiophenyl)thiourea], the inhibition in vivo at 32 mg/kg in assay [1] came to 85.5%; in the assay with ethanol peptic ulcer, 81.1%. In the assay with Helicobacter pylori, this compound had an MIC of 6.25 µg/mL (≈ 12.1 µM).
